Several values for one entry are separate records, joined by “and”; a condition that tells them apart may be missing. Equal values may be shown once. Toxic doses and inconclusive results are not listed.
Test system: L1210 leukemia ip in BDF1 mice, survival T/C
Assay: NCI In Vivo Anticancer Drug Screen. Data for tumor model L1210 Leukemia (intraperitoneal) in B6D2F1 (BDF1) mice
Conditions: endpoint: mean survival time, higher = longer survival
Procedure, shortened: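 Ratio derived from survival: compound-dosed mice over vehicle-dosed mice, all bearing a transplantable tumor.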

[1] = dose: 100.0 mg/kg/injection, schedule: Q04DX003 (ip), vehicle: saline with Tween-80
[2] = dose: 200.0 mg/kg/injection, schedule: Q04DX003 (ip), vehicle: saline with Tween-80
[3] = dose: 400.0 mg/kg/injection, schedule: Q04DX003 (ip), vehicle: saline with Tween-80
[4] = dose: 100.0 mg/kg/injection, schedule: Q01DX001 (ip), vehicle: saline
[5] = dose: 200.0 mg/kg/injection, schedule: Q01DX001 (ip), vehicle: saline
[6] = dose: 400.0 mg/kg/injection, schedule: Q01DX001 (ip), vehicle: saline

In the case of `COc1ccc(OC)c(C(=O)CC(O)(C(F)(F)F)C(F)(F)F)c1`, the T/C [1] is reported as 94 % of control, the T/C [2] is reported as 90 % of control and the T/C [3] is reported as 99 % of control.
`COC(=O)c1[nH]nc(-c2ccccc2-c2ccccc2C(=O)O)c1C(=O)OC` was tested, and the T/C (dose: 100.0 mg/kg/injection, schedule: Q04DX002 (ip), vehicle: Klucel (hydroxypropylcellulose) (HPC)) was 97 % of control, the T/C (dose: 200.0 mg/kg/injection, schedule: Q04DX002 (ip), vehicle: Klucel (hydroxypropylcellulose) (HPC)) was 108 % of control and the T/C (dose: 400.0 mg/kg/injection, schedule: Q04DX002 (ip), vehicle: Klucel (hydroxypropylcellulose) (HPC)) was 105 % of control.
In the case of `COc1ccc(/C=C2\SC(=S)NC2=O)cc1OC`, the T/C (dose: 100.0 mg/kg/injection, schedule: Q01DX009 (ip), vehicle: saline sonified) is reported as 96 % of control, the T/C (dose: 100.0 mg/kg/injection, schedule: Q04DX003 (ip), vehicle: Klucel (hydroxypropylcellulose) (HPC)) is reported as 98 % of control and the T/C (dose: 200.0 mg/kg/injection, schedule: Q01DX009 (ip), vehicle: saline sonified) is reported as 108 % of control. For the same compound, the T/C (dose: 200.0 mg/kg/injection, schedule: Q04DX003 (ip), vehicle: Klucel (hydroxypropylcellulose) (HPC)) was 96 % of control, the T/C (dose: 400.0 mg/kg/injection, schedule: Q01DX009 (ip), vehicle: saline sonified) was 94 % of control and the T/C (dose: 400.0 mg/kg/injection, schedule: Q04DX003 (ip), vehicle: Klucel (hydroxypropylcellulose) (HPC)) was 96 % of control.
`Cc1c(C(C)(C)c2ccccc2)[nH]c2ccc(C(C)(C)c3ccccc3)cc12` was tested, and the T/C [4] was 88 % of control, the T/C [5] was 86 % of control and the T/C [6] was 96 % of control.
In the case of `C=CCN(CC=C)c1ncnc(N(C)C)n1`, the T/C (dose: 25.6 mg/kg/injection, schedule: Q04DX002 (ip), vehicle: saline with Tween-80) is reported as 93 % of control, the T/C (dose: 64.0 mg/kg/injection, schedule: Q04DX002 (ip), vehicle: saline with Tween-80) is reported as 101 % of control and the T/C (dose: 160.0 mg/kg/injection, schedule: Q04DX002 (ip), vehicle: saline with Tween-80) is reported as 101 % of control. The T/C (dose: 400.0 mg/kg/injection, schedule: Q04DX002 (ip), vehicle: saline with Tween-80) was 97 % of control.
`COc1cc(C(O)C(Cl)(Cl)Cl)ccc1O` (centres undefined) was tested, and the T/C (dose: 100.0 mg/kg/injection, schedule: Q04DX003 (ip), vehicle: other) was 105 % of control, the T/C (dose: 200.0 mg/kg/injection, schedule: Q04DX003 (ip), vehicle: other) was 105 % of control and the T/C (dose: 400.0 mg/kg/injection, schedule: Q04DX003 (ip), vehicle: other) was 102 % of control.
For `CC12C3CCC(C3)C1(O)C2S(=O)(=O)N1CCCCC1` (centres undefined), the T/C (dose: 100.0 mg/kg/injection, schedule: Q01DX009 (ip), vehicle: saline) was 110 % of control and the T/C (dose: 200.0 mg/kg/injection, schedule: Q01DX009 (ip), vehicle: saline) was 104 % of control.
In the case of `OCCNc1ccc(C2=NCCO2)cc1`, the T/C (dose: 100.0 mg/kg/injection, schedule: Q01DX009 (ip), vehicle: saline with Tween-80) is reported as 106 % of control, the T/C (dose: 200.0 mg/kg/injection, schedule: Q01DX009 (ip), vehicle: saline with Tween-80) is reported as 97 % of control and the T/C (dose: 400.0 mg/kg/injection, schedule: Q01DX009 (ip), vehicle: saline with Tween-80) is reported as 91 % of control.
With `CCCC/C=C(\C)CCCCCCCCC` (tested in a mixture with another compound) the T/C [1] was 90 % of control, the T/C [2] was 89 % of control and the T/C [3] was 98 % of control.
`CNC(=O)c1ccc(NC(=O)Nc2ccc(C3=NCCN3)cc2)cc1NC(=O)Nc1ccc(C2=NCCN2)cc1` was tested, and the T/C (dose: 2.0 mg/kg/injection, schedule: Q01DX Z (ip), vehicle: carboxymethylcellulose (CMC)) was 96 % of control, the T/C (dose: 4.0 mg/kg/injection, schedule: Q01DX Z (ip), vehicle: carboxymethylcellulose (CMC)) was 112 % of control and the T/C (dose: 17.0 mg/kg/injection, schedule: Q01DX Z (ip), vehicle: carboxymethylcellulose (CMC)) was 209 % of control and 351 % of control. The T/C (dose: 27.0 mg/kg/injection, schedule: Q01DX Z (ip), vehicle: carboxymethylcellulose (CMC)) was 287 % of control, the T/C (dose: 34.0 mg/kg/injection, schedule: Q01DX Z (ip), vehicle: carboxymethylcellulose (CMC)) was 239 % of control and 295 % of control and the T/C (dose: 51.0 mg/kg/injection, schedule: Q01DX Z (ip), vehicle: carboxymethylcellulose (CMC)) was 209 % of control. For the same compound, the T/C (dose: 62.0 mg/kg/injection, schedule: Q01DX Z (oral), vehicle: carboxymethylcellulose (CMC)) was 104 % of control, the T/C (dose: 68.0 mg/kg/injection, schedule: Q01DX Z (ip), vehicle: carboxymethylcellulose (CMC)) was 152 % of control and the T/C (dose: 125.0 mg/kg/injection, schedule: Q01DX Z (oral), vehicle: carboxymethylcellulose (CMC)) was 105 % of control. For the same compound, the T/C (dose: 250.0 mg/kg/injection, schedule: Q01DX Z (oral), vehicle: carboxymethylcellulose (CMC)) was 102 % of control and the T/C (dose: 500.0 mg/kg/injection, schedule: Q01DX Z (oral), vehicle: carboxymethylcellulose (CMC)) was 102 % of control.
In the case of `NNc1n[nH]c(=O)[nH]c1=O`, the T/C [4] is reported as 102 % of control, the T/C [5] is reported as 96 % of control and the T/C [6] is reported as 96 % of control.

Source: PubChem BioAssay AID248 (DTP/NCI, 2004)
